Experimental findings from patent US12581252B2, “Substituted pyrrolo[3,4-b]pyridines as PI3K-α inhibitors” (Relay Therapeutics, Inc., priority 2020, dated 2026) are described below.

By IC50 is commonly meant the point on the concentration scale where inhibition reaches its midpoint. A high value points to a need for much substance.

Each structure is given as a SMILES string. A value given as a limit tells only on which side of the number the result lay.

H1047R PIK3CA enzyme, sequence (P42336 whole entry H1047R): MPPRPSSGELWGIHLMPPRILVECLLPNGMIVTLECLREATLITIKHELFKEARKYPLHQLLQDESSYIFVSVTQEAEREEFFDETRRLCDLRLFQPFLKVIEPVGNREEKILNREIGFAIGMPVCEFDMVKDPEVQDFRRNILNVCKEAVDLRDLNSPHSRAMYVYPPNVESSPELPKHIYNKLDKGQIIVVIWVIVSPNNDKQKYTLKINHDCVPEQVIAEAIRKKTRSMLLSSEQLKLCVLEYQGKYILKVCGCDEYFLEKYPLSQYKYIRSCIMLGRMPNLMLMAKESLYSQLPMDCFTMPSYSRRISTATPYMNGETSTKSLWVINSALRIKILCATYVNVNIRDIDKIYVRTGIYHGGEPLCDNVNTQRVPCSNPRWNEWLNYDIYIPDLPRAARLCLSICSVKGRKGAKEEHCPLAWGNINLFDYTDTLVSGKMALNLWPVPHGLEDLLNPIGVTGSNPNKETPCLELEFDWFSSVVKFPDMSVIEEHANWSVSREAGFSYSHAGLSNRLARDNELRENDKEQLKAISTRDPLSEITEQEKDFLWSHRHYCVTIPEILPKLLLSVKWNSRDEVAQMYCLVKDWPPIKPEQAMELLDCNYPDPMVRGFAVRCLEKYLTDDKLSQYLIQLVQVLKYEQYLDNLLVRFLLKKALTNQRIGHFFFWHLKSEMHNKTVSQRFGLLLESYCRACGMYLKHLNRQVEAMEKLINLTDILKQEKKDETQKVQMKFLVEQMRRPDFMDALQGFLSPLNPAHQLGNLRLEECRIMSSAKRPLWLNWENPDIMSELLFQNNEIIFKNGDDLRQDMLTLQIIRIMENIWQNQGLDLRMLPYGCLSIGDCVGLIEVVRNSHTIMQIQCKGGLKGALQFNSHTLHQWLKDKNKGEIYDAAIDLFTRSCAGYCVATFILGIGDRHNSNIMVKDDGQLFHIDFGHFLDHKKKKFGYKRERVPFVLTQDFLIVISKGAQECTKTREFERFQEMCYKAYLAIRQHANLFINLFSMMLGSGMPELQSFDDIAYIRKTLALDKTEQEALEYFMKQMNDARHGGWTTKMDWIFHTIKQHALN
H1047R PIK3CA enzyme, sequence (P27986 whole entry partner): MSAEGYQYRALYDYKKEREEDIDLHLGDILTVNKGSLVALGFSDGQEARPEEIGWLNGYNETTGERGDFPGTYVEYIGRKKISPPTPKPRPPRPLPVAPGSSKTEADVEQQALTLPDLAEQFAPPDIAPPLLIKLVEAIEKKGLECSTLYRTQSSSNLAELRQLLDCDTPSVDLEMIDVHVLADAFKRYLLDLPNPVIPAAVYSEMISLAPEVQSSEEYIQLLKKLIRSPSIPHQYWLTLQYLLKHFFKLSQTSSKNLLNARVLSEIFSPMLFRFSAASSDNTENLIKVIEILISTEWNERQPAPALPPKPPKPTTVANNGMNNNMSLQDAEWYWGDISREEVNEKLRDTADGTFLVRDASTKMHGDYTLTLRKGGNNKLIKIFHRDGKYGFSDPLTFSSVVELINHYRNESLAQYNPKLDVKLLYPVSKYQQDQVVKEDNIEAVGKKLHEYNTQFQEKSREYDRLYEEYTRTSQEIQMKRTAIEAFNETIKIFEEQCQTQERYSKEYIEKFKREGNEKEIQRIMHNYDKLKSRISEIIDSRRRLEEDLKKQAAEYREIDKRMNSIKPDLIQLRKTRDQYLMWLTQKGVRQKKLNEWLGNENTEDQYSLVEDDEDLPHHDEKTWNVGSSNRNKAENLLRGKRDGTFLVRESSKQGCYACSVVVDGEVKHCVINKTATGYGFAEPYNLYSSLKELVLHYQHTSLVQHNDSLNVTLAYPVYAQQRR

This experiment addresses H1047R PIK3CA enzyme (Homo sapiens, UniProt P42336, H1047R). Put plainly: ADP-Glo Biochemical PIK3CA Kinase Assay. (In general: ADP-Glo turns the ADP formed in a reaction into a luminescent signal.)
In turn, `O=C1NC(c2cc(F)ccc2Cl)c2c(NC(=O)N3CCSc4ccccc43)cccc21` (centres unmarked) [Compound I-2284] returned an IC50 of 10000 to 100000 nM.
For `Cc1ccccc1C1NC(=O)c2cc(-c3cnoc3)cc(NC(=O)c3csc4ccccc34)c21` (centres unmarked) [Compound I-141] the value was at most 100 nM; for `O=C(Nc1cc(-c2ccc3nc(Cl)nn3c2)cc2c1[C@@H](c1cc(F)ccc1Cl)NC2=O)c1cc(F)cc(C(F)(F)F)c1` [Compound I-1692], 1000 to 10000 nM.
`O=C(Nc1cc(OC2CCC2(F)F)cc2c1C(c1cc(F)ccc1Cl)NC2=O)c1cc(F)cc(C(F)(F)F)c1` (centres unmarked) [Compound I-1198] yielded an IC50 of at most 100 nM.
Then `CN(C)S(=O)(=O)c1cc(-c2ccc3ncnn3c2)cc2c1[C@H](c1cc(F)ccc1Cl)NC2=O` [Compound I-2099], with 10000 to 100000 nM.
For `O=C(Nc1cc(OC2CNC2)cc2c1C(c1cc(F)ccc1Cl)NC2=O)c1cc(F)cc(C(F)(F)F)c1` (centres unmarked) [Compound I-1252] the value was 100 to 500 nM.
Consider `O=C1Cc2cc(-c3cc(NC(=O)c4cc(F)cc(C(F)(F)F)c4)c4c(c3)C(=O)NC4c3cc(F)ccc3Cl)ccc2N1` (centres unmarked) [Compound I-1041], for which the IC50 was at most 100 nM.
In turn, `O=C1N[C@@H](c2cc(F)ccc2Cl)c2c(NC(=O)[C@H]3CC[C@@H](O)C3)cc(Br)cc21` (single isomer, unassigned) [Compound I-2102] had an IC50 of 10000 to 100000 nM.
Compound `Nc1nc2cc(-c3cc(NC(=O)c4cc(F)cc(C(F)(F)F)c4)c4c(c3)C(=O)NC4c3cc(F)ccc3Cl)ccn2n1` (centres unmarked) [Compound I-1370] returned an IC50 of at most 100 nM.
`Nc1c(Cl)cc(F)cc1C(=O)Nc1cc(Br)cc2c1C(c1cc(F)ccc1Cl)NC2=O` (centres unmarked) [Compound I-843] gave an IC50 of 100 to 500 nM.
In the case of `N#Cc1cncn1Cc1cc(NC(=O)c2cc(F)cc(C(F)(F)F)c2)c2c(c1)C(=O)N[C@H]2c1cc(F)ccc1Cl` (stereo in doubt) [Compound I-1748], the IC50 was at most 100 nM.
For `C[C@@H](CCC(F)(F)F)C(=O)Nc1cccc2c1[C@@H](c1cc(F)ccc1Cl)NC2=O` [Compound I-2141] the value was 10000 to 100000 nM; for `O=C(Nc1cccc2c1C(c1cccc3cn[nH]c13)NC2=O)c1cc(F)cc(C(F)(F)F)c1` (centres unmarked) [Compound I-666], 10000 to 100000 nM.
Take `N#CCc1cc(NC(=O)N2C[C@](O)(C(F)F)c3cc(F)ccc32)c2c(c1)C(=O)N[C@@H]2c1cc(F)ccc1Cl` (single isomer, unassigned) [Compound I-2598]: the IC50 fell in the range of 1000 to 10000 nM.
The compound `Cc1ccccc1C1NC(=O)c2cccc(NC(=O)c3cc(F)cc(C(C)C)c3)c21` (centres unmarked) [Compound I-715] showed a half-maximal inhibitory concentration (IC50) of 1000 to 10000 nM.
The compound `O=C1N[C@@H](c2cc(F)ccc2Cl)c2c(NC(=O)N3C[C@](O)(C(F)F)c4cc(F)ccc43)cccc21` (single isomer, unassigned) [Compound I-2557] returned a 50% inhibitory concentration (IC50) of 1000 to 10000 nM.
Then `O=C(Nc1cc(-c2ncc[nH]2)cc2c1[C@@H](c1cc(F)ccc1Cl)NC2=O)c1cc(F)cc(C(F)(F)F)c1` [Compound I-918], with 500 to 1000 nM; and `O=C(Nc1cc(-c2ccc3ncnn3c2)nc2c1C(C1CCCCO1)NC2=O)c1cc(F)cc(C(F)(F)F)c1` (centres unmarked) [Compound I-1706], with 10000 to 100000 nM.
Then `N#CCOc1cc(NC(=O)c2cc(F)cc(C(F)(F)F)c2)c2c(c1)C(=O)N[C@H]2c1cc(F)ccc1Cl` [Compound I-1888], with at most 100 nM; and `O=C1N[C@@H](c2cc(F)ccc2Cl)c2c(NC(=O)N3C[C@@](O)(C(F)(F)F)c4cc(F)ccc43)ccc(-n3cccn3)c21` (single isomer, unassigned) [Compound I-2495], with 10000 to 100000 nM.
Then `O=C1NC(c2cc(F)ccc2Cl)c2c(C#Cc3ccccc3)cccc21` (centres unmarked) [Compound I-2097], with 10000 to 100000 nM.
Take `O=CNc1nc(-c2cc(NC(=O)c3cc(F)cc(C(F)(F)F)c3)c3c(c2)C(=O)NC3c2cc(F)ccc2Cl)ccc1O` (centres unmarked) [Compound I-1552]: the IC50 is at most 100 nM.
For `Cc1nccn1-c1cc(NC(=O)N2C[C@@](O)(C(F)(F)F)c3cc(F)ccc32)c2c(c1)C(=O)N[C@H]2c1cc(F)ccc1Cl` (single isomer, unassigned) [Compound I-2663] the value was 1000 to 10000 nM.
For `O=C(Nc1cc(OC[C@H]2CCCN2)cc2c1C(c1cc(F)ccc1Cl)NC2=O)c1cc(F)cc(C(F)(F)F)c1` (mixture of isomers) [Compound I-1457] the value was 100 to 500 nM; for `O=C(NCc1ccccc1)c1cc(Br)cc2c1C(c1cc(F)ccc1Cl)NC2=O` (centres unmarked) [Compound I-1979], 10000 to 100000 nM; for `O=C1NC(c2cc(F)ccc2Cl)c2c(NC(=O)N3CCCC(F)C3)cc(Br)cc21` (centres unmarked) [Compound I-491], 10000 to 100000 nM.
For `COc1cc(C)c(C(=O)Nc2cc(Br)cc3c2C(c2cc(F)ccc2Cl)NC3=O)cn1` (centres unmarked) [Compound I-850] the value was 10000 to 100000 nM.
Regarding `N#CC1(n2cc(-c3cc(NC(=O)c4cc(F)cc(C(F)(F)F)c4)c4c(c3)C(=O)NC4c3cc(F)ccc3Cl)cn2)CC1` (centres unmarked) [Compound I-1800], the IC50 was at most 100 nM.
Then `Cc1ccccc1C1NC(=O)c2cccc(NC(=O)c3coc4c(F)cc(F)cc34)c21` (centres unmarked) [Compound I-58], with 100 to 500 nM; and `O=C(Nc1cc(C2COC2)cc2c1C(c1cc(F)ccc1Cl)NC2=O)c1cc(F)cc(C(F)(F)F)c1` (centres unmarked) [Compound I-420], with at most 100 nM.
`CC1(Cc2cc(NC(=O)c3cc(F)cc(C(F)(F)F)c3)c3c(c2)C(=O)N[C@@H]3c2cc(F)ccc2Cl)COC1` [Compound I-817] gave an IC50 of 1000 to 10000 nM.
Then `O=C(Nc1cnc(-c2cn[nH]c2)c2c1C(c1cc(F)ccc1Cl)NC2=O)c1cc(F)cc(C(F)(F)F)c1` (centres unmarked) [Compound I-287], with 100 to 500 nM; and `Cc1ccccc1C1NC(=O)c2c(Br)ccc(NC(=O)c3cc(F)cc(C(F)(F)F)c3)c21` (centres unmarked) [Compound I-279], with 100 to 500 nM.
For `O=C1N[C@H](c2cc(F)ccc2Cl)c2c(NC(=O)N3C[C@H](O)c4cc(F)c(F)cc43)cccc21` (single isomer, unassigned) [Compound I-2292] the value was 10000 to 100000 nM; for `Cn1ncc2c(C(=O)Nc3cccc4c3C(c3cc(F)ccc3Cl)NC4=O)cc(F)cc21` (centres unmarked) [Compound I-871], 10000 to 100000 nM.
For `O=C(Nc1cc(-c2cnn(S(=O)(=O)C(F)F)c2)cc2c1[C@H](c1cc(F)ccc1Cl)NC2=O)c1cc(F)cc(C(F)(F)F)c1` [Compound I-2093] the value was at most 100 nM; for `O=C(Nc1cc(-c2ccc(=O)n(C3CC3)c2)nc2c1C(c1cc(F)ccc1Cl)NC2=O)c1cc(F)cc(C(F)(F)F)c1` (centres unmarked) [Compound I-647], at most 100 nM; for `O=C1NC(c2cc(F)ccc2Cl)c2c(Nc3cn4ccccc4n3)cc(-c3ccc4ncnn4c3)cc21` (centres unmarked) [Compound I-1668], 1000 to 10000 nM.
On to `CN1CCN=C1Nc1cc(NC(=O)c2cc(F)cc(C(F)(F)F)c2)c2c(c1)C(=O)NC2c1cc(F)ccc1Cl` (centres unmarked) [Compound I-2298], for which the IC50 is 100 to 500 nM.
Then `O=C1C[C@H](c2cc(NC(=O)c3cc(F)cc(C(F)(F)F)c3)c3c(c2)C(=O)N[C@H]3c2cc(F)ccc2Cl)CN1` (single isomer, unassigned) [Compound I-1709], with at most 100 nM; and `C[C@@H](C#N)Cn1cc(-c2cc(NC(=O)N3C[C@@H](O)c4cc(F)ccc43)c3c(c2)C(=O)N[C@@H]3c2cc(F)ccc2Cl)cn1` (single isomer, unassigned) [Compound I-2505], with 1000 to 10000 nM.
Then `Cc1ccccc1C(=O)Nc1cc(Br)cc2c1C(c1cc(F)ccc1Cl)NC2=O` (centres unmarked) [Compound I-464], with 10000 to 100000 nM; and `O=C(Nc1cccc2c1[C@@H](C1CCC[C@H](O)C1)NC2=O)c1cc(F)cc(C(F)(F)F)c1` (single isomer, unassigned) [Compound I-2225], with 10000 to 100000 nM.
As for `O=C1NC(c2cc(F)ccc2Cl)c2c(NC(=O)C3CCCC(C(F)(F)F)C3)cc(Br)cc21` (mixture of isomers) [Compound I-1323], the half-inhibitory concentration (IC50) was in the range of 100 to 500 nM.
`O=C1C[C@@H](c2cc(NC(=O)c3cc(F)cc(C(F)(F)F)c3)c3c(c2)C(=O)N[C@@H]3c2cc(F)ccc2Cl)CN1` (single isomer, unassigned) [Compound I-1712] displayed an IC50 of 1000 to 10000 nM.
For `N#CCc1cc(NC(=O)N2C[C@@](O)(C(F)F)c3cc(F)ccc32)c2c(c1)C(=O)N[C@H]2c1cc(F)ccc1Cl` (single isomer, unassigned) [Compound I-2599] the value was 100 to 500 nM; for `COc1ccc2snc(C(=O)Nc3cccc4c3C(c3ccccc3C)NC4=O)c2c1` (centres unmarked) [Compound I-129], 10000 to 100000 nM.
For `Cc1ccccc1C1NC(=O)c2cccc(NC(=O)C(F)(F)F)c21` (centres unmarked) [Compound I-16] the value was 10000 to 100000 nM; for `O=C(Nc1cc(C(F)(F)F)ccc1Cl)Nc1cc(Br)cc2c1C(c1cc(F)ccc1Cl)NC2=O` (centres unmarked) [Compound I-1176], 100 to 500 nM.
For `O=C1NC(c2cc(F)ccc2Cl)c2c1cc(-c1ccc3ncnn3c1)cc2N1CCn2cc(C(F)(F)F)nc2C1` (centres unmarked) [Compound I-2039] the value was 10000 to 100000 nM; for `COc1cccc2c(C(=O)Nc3cccc4c3C(c3ccccc3C)NC4=O)csc12` (centres unmarked) [Compound I-198], 10000 to 100000 nM.
In turn, `CS(=O)(=O)Cn1cc(-c2cc(NC(=O)c3cc(F)cc(C(F)(F)F)c3)c3c(c2)C(=O)NC3c2cc(F)ccc2Cl)cn1` (centres unmarked) [Compound I-1336] returned an IC50 of at most 100 nM.
Then `CC(C)(O)c1cc(NC(=O)c2cc(F)cc(Cl)c2)c2c(c1)C(=O)NC2c1cc(F)ccc1Cl` (centres unmarked) [Compound I-214], with at most 100 nM.
Regarding `CN1CC[C@H](Nc2cc(NC(=O)c3cc(F)cc(C(F)(F)F)c3)c3c(c2)C(=O)NC3c2cc(F)ccc2Cl)C1` (some centres unmarked) [Compound I-311], the IC50 was at most 100 nM.
For `O=C(Nc1cccc2c1C(c1cc(F)ccc1Cl)NC2=O)Nc1n[nH]c2ccccc12` (centres unmarked) [Compound I-2382] the value was 1000 to 10000 nM.
The compound `O=C(Nc1cccc2c1C(c1ccnc(Cl)c1)NC2=O)c1cc(F)cc(C(F)(F)F)c1` (centres unmarked) [Compound I-630] gave an IC50 of 10000 to 100000 nM.
For `O=C(Nc1cc(NC(=O)C2(O)CC2)cc2c1C(c1cc(F)ccc1Cl)NC2=O)c1cc(F)cc(C(F)(F)F)c1` (centres unmarked) [Compound I-592] the value was at most 100 nM; for `O=C(Nc1cc(-c2ccn[nH]2)cc2c1C(c1cc(F)ccc1Cl)NC2=O)c1cc(F)cc(C(F)(F)F)c1` (centres unmarked) [Compound I-815], at most 100 nM.
`O=C1NC(c2cc(F)ccc2Cl)c2c(NC(=O)C34CC5CC(CC(C5)C3)C4)cccc21` (centres unmarked) [Compound I-876] yielded an IC50 of 100 to 500 nM.
